Assay results as given in US10633394B2, “Heterocyclic derivatives and use thereof” (C & C RESEARCH LABORATORIES, priority 2014, dated 2020).

How the values were obtained:
Type in all cases: cell-based
NCI-N87 = assay: Cell growth inhibition assay (CellTiter-Glo), stomach cancer cell line NCI-N87; settings: Homo sapiens; NCI-N87 cells, 96 hours
Description: (§1) The inhibitory effects of the compounds of the present invention against the growth of cancer cells were evaluated as shown below. The cancer cell lines including stomach cancer cell line (NCI-N87) and breast cancer cell line (MDA-MB-468) were cultured under the protocol provided by each supplier. Each type of cells to be used in experiments was sub-cultured in a 96-well plate by counting the exact number of cells using Tali™ Image-based Cytometer (Life Technologies). In a 96-well plate, NCI-N87 was employed with 5,000 cells/well; and MDA-MB-468 was employed with 10,000 cells/well. The cells were treated with the compounds listed in Examples which were diluted in various concentrations. Upon completion of the compounds treatment, NCI-N87 cells were cultured at 37° C. under 5% CO2 for 96 hours, and MDA-MB-468 cells were cultured at 37° C. in air for 96 hours. Subsequently, the cells were observed under microscope and drug precipitation and particular findings were investigated and recorded. And then, the 96-well plate was placed at room temperature for 30 minutes, added with 20 μL/well of CellTiter-Glo solution (Cat No. G7573, Promega) and shaken for 10 minutes, followed by being subjected to the measurement using PHERAstar™ microplate reader (BMG LABTECH) according to the supplier's general luminometer protocol. Wells where only culture liquid added without cell plating were used as a negative control, whereas wells where culture liquid containing 0.1% DMSO instead of the compounds listed in Examples were used as a positive control.

MDA-MB-468 = assay: Cell growth inhibition assay (CellTiter-Glo), breast cancer cell line MDA-MB-468; settings: Homo sapiens; MDA-MB-468 cells, 96 hours
Description: as §1

STAT3 = target: T1, STAT3 (Homo sapiens, UniProt P40763); assay: STAT3 reporter gene (luciferase) assay in LNCaP stable cell line stimulated with IL-6; settings: LNCaP stable cell line (pSTAT3-TA-luc), IL-6 10 ng/mL, 24 hours
T1 construct: plasmid pSTAT3-TA-luc), which contains a stably operating STAT3 promoter; endogenous in cells
Description: 1-1) Experiment on the Inhibition of STAT3 Activity
A human prostate cancer cell line (LNCaP stable cell line; plasmid pSTAT3-TA-luc), which contains a stably operating STAT3 promoter, was cultured in RPMI1640 medium (Cat No. 11875, Life Technologies) containing 10% fetal bovine serum (FBS) (Cat No. SH30396, Thermo Scientific) and 150 μg/mL G-418 solution (Cat No. 04 727 894 001, Roche). The reporter gene assay using LNCaP stable cell line was performed in RPMI1640 medium containing 3% DCC-FBS without G-418 solution. LNCaP stable cells were plated in two (2) white 96-well plates with 30,000 cells/50 μL in each well. The cells were cultured at 37° C., under 5% CO2 for 24 hours, and then treated with the compounds listed in Examples which were diluted in various concentrations. Subsequently, IL-6 was added to each well with a final concentration of 10 ng/mL. Upon completion of the treatment with the compounds and IL-6, the cells were cultured at 37° C., under 5% CO2 for 24 hours. The plates were observed under microscope and drug precipitation and particular findings were investigated and recorded.
The luciferase assay and the cell viability assay were performed respectively with one of the two plates. For the luciferase assay, the liquid media in the 96-well plate was removed, and then, 20 μL of passive cell lysis buffer was added to each well. After shaking the plate for 30 minutes, luciferase activities of each well were measured in a PHERAstar™ microplate reader (BMG LABTECH) using a luciferase assay system (Cat No. E1501, Promega). For the cell viability assay, the 96-well plate was placed at room temperature for 30 minutes, added with 20 μL/well of CellTiter-Glo solution (Cat No. G7573, Promega), and shaken for 10 minutes in order to measure cytotoxicity caused by the compounds listed in Examples with a PHERAstar™ microplate reader (BMG LABTECH). Wells without 0.1% DMSO and stimulation were used as a negative control and wells with 0.1% DMSO and stimulation were used as a positive control.
The results of evaluation on the inhibitory effect of the compounds listed in the Examples on the dimerization of STAT3 and STAT1 obtained via the STAT3 and STAT1 reporter gene assays are shown in Table 6 below.

T1 sequence (P40763 whole entry): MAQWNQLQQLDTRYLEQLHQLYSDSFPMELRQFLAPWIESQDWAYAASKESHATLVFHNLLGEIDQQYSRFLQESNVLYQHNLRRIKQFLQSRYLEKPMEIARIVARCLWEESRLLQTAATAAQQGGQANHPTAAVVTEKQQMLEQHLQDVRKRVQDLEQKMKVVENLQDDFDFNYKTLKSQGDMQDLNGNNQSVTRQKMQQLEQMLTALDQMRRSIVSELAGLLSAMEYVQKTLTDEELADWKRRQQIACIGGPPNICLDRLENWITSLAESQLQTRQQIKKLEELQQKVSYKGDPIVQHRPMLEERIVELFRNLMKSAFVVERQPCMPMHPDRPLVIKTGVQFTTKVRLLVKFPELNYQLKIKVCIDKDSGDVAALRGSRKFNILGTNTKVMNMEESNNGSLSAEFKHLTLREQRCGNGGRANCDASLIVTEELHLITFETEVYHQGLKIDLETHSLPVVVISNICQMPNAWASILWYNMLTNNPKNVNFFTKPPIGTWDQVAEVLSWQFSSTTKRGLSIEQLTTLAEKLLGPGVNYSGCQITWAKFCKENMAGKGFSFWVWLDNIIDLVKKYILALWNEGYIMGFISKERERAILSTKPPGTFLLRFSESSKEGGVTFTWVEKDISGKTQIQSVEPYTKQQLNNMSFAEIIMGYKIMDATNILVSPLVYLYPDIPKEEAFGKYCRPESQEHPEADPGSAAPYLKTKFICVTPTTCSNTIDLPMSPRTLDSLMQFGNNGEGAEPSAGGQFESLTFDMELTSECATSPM

| Compound | IC50 (NCI-N87) [µM] | IC50 (MDA-MB-468) [µM] | IC50 (STAT3) [µM] |
| --- | --- | --- | --- |
| CS(=O)(=O)C1CCOc2cc3sc(C(=O)Nc4cc(Cl)nc(Oc5ccc(Cl)cc5)c4)cc3cc21 (racemic) [Example 8, N-(2-chloro-6-(4-chlorophenoxy)pyridin-4-yl)-4-(methylsulfonyl)-3,4-dihydro-2H-thieno[3,2-g]chromene-7-carboxamide] | 0.031 | 0.0032 | 0.024 |
| CS(=O)(=O)C1COCc2cc3sc(C(=O)Nc4cc(Cl)nc(Oc5ccc(Cl)cc5)c4)cc3cc21 (stereo not drawn) [Example 12, N-(2-chloro-6-(4-chlorophenoxy)pyridin-4-yl)-5-(methylsulfonyl)-5,8-dihydro-6H-thieno[3,2-g]isochromene-2-carboxamide] | 0.0018 | 0.0028 | 0.003 |
| CS(=O)(=O)C1CCOc2cc3sc(C(=O)Nc4cc(Cl)nc(Oc5cc(F)cc(Cl)c5)c4)cc3cc21 (stereo not drawn) [Example 31, N-(2-chloro-6-(3-chloro-5-fluorophenoxy)pyridin-4-yl)-4-(methylsulfonyl)-3,4-dihydro-2H-thieno[3,2-g]chromene-7-carboxamide] | 0.009 | 0.0022 | 0.008 |
| Cc1cccc(Oc2cc(NC(=O)c3cc4cc5c(cc4s3)OCCC5S(C)(=O)=O)cc(Cl)n2)c1 (stereo not drawn) [Example 33, N-(2-chloro-6-(m-tolyloxy)pyridin-4-yl)-4-(methylsulfonyl)-3,4-dihydro-2H-thieno[3,2-g]chromene-7-carboxamide] | 0.024 | 0.0093 | 0.0098 |
| COc1ccc(Oc2cc(NC(=O)c3cc4cc5c(cc4s3)OCCC5S(C)(=O)=O)cc(Cl)n2)cc1 (stereo not drawn) [Example 22, N-(2-chloro-6-(4-methoxyphenoxy)pyridin-4-yl)-4-(methylsulfonyl)-3,4-dihydro-2H-thieno[3,2-g]chromene-7-carboxamide] | 0.071 | 0.017 | 0.03 |
| Cc1cc(Oc2cc(NC(=O)c3cc4cc5c(cc4s3)OCCC5S(C)(=O)=O)cc(Cl)n2)ccc1Cl (stereo not drawn) [Example 20, N-(2-chloro-6-(4-chloro-3-methylphenoxy)pyridin-4-yl)-4-(methylsulfonyl)-3,4-dihydro-2H-thieno[3,2-g]chromene-7-carboxamide] | 0.0094 | 0.0024 | 0.01 |
| CS(=O)(=O)C1CCC(=O)c2cc3sc(C(=O)Nc4cc(Cl)nc(Oc5ccc(Cl)cc5)c4)cc3cc21 (stereo not drawn) [Example 51, N-(2-chloro-6-(4-chlorophenoxy)pyridin-4-yl)-5-(methylsulfonyl)-8-oxo-5,6,7,8-tetrahydronaphtho[2,3-b]thiophene-2-carboxamide] | 0.2 | 0.05 | 0.1 |
| CS(=O)(=O)C1CCOc2cc3sc(C(=O)Nc4cc(Cl)nc(Oc5ccc(Cl)c(Cl)c5)c4)cc3cc21 (stereo not drawn) [Example 24, N-(2-chloro-6-(3,4-dichlorophenoxy)pyridin-4-yl)-4-(methylsulfonyl)-3,4-dihydro-2H-thieno[3,2-g]chromene-7-carboxamide] | 0.0038 | 0.0024 | 0.0062 |
| CS(=O)(=O)C1CCOc2cc3sc(C(=O)Nc4cc(Cl)nc(Oc5ccc(F)cc5)c4)cc3cc21 (stereo not drawn) [Example 26, N-(2-chloro-6-(4-fluorophenoxy)pyridin-4-yl)-4-(methylsulfonyl)-3,4-dihydro-2H-thieno[3,2-g]chromene-7-carboxamide] | 0.0072 | 0.0046 | 0.0073 |
| CS(=O)(=O)C1CCCOc2cc3sc(C(=O)Nc4cc(Cl)nc(Oc5ccc(Cl)cc5)c4)cc3cc21 (stereo not drawn) [Example 9, N-(2-chloro-6-(4-chlorophenoxy)pyridin-4-yl)-5-(methylsulfonyl)-2,3,4,5-tetrahydrothieno[3′,2′:4,5]benzo[1,2-b]oxepine-8-carboxamide] | 0.067 | 0.023 | 0.029 |

Results, then the compound that gave them:

| IC50 (NCI-N87) [µM] | IC50 (MDA-MB-468) [µM] | IC50 (STAT3) [µM] | Compound |
| --- | --- | --- | --- |
| 0.025 | 0.0066 | 0.0081 | CS(=O)(=O)C1(F)CCOc2cc3sc(C(=O)Nc4cc(Cl)nc(Oc5ccc(Cl)cc5)c4)cc3cc21 (stereo not drawn) [Example 13, N-(2-chloro-6-(4-chlorophenoxy)pyridin-4-yl)-4-fluoro-4-(methylsulfonyl)-3,4-dihydro-2H-thieno[3,2-g]chromene-7-carboxamide] |
| 0.021 | 0.0039 | 0.0051 | CS(=O)(=O)C1CCOc2cc3sc(C(=O)Nc4cc(Cl)nc(Oc5cccc(C(F)(F)F)c5)c4)cc3cc21 (stereo not drawn) [Example 16, N-(2-chloro-6-(3-(trifluoromethyl)phenoxy)pyridin-4-yl)-4-(methylsulfonyl)-3,4-dihydro-2H-thieno[3,2-g]chromene-7-carboxamide] |
| 0.32 | 0.075 | 0.18 | N#CC1CCOc2cc3sc(C(=O)Nc4cc(Cl)nc(Oc5ccc(Cl)cc5)c4)cc3cc21 (stereo not drawn) [Example 54, N-(2-chloro-6-(4-chlorophenoxy)pyridin-4-yl)-4-cyano-3,4-dihydro-2H-thieno[3,2-g]chromene-7-carboxamide] |
| 0.0064 | 0.0017 | 0.0045 | C[C@]1(S(C)(=O)=O)CCOc2cc3sc(C(=O)Nc4cc(Cl)nc(Oc5ccc(Cl)cc5)c4)cc3cc21 [Example 47, (S)—N-(2-chloro-6-(4-chlorophenoxy)pyridin-4-yl)-4-methyl-4-(methylsulfonyl)-3,4-dihydro-2H-thieno[3,2-g]chromene-7-carboxamide] |
| 0.018 | 0.0059 | 0.0066 | COc1cc(Cl)cc(Oc2cc(NC(=O)c3cc4cc5c(cc4s3)OCC[C@@H]5S(C)(=O)=O)cc(Cl)n2)c1 [Example 49, (S)—N-(2-chloro-6-(3-chloro-5-methoxyphenoxy)pyridin-4-yl)-4-(methylsulfonyl)-3,4-dihydro-2H-thieno[3,2-g]chromene-7-carboxamide] |
